Each structure is given as a SMILES string.

The test system of one data set is Phytophthora infestans. In kind it is in vivo. As to conditions: tomato plants, preventive spray, 500 ppm of active ingredient, evaluated 7 days after inoculation; 0% = untreated control, 100% = no disease.
With `C=CCCC(=O)C(C#N)=C(NC(C)C(C)C)c1cccnc1Cl` (stereo not shown) [Compound 73], the efficacy was 80%.

`CCCC(=O)C(C#N)=C(NC(C)CCC)c1cccnc1Cl` (racemic) [Compound 117]: the efficacy is 80%.

As for `CCCC(=O)C(C#N)=C(NC(C)C1CCC1)c1cccnc1Cl` (racemic) [Compound 104], the efficacy was determined as 95%.

Take `CCCCC(=O)C(C#N)=C(NC(C)C1(Cl)CC1)c1cccnc1Cl` (stereo not shown) [Compound 47]: the efficacy stood at 75%.

For `CC#CC(C)NC(=C(C#N)C(=O)CCC)c1cn(C)nc1C(F)F` (racemic) [Compound 125], the efficacy worked out at 75%.

`CCCC(=O)C(C#N)=C(NC(C)C1=NOCC1)c1cccnc1Cl` (racemic) [Compound 100] returned an efficacy of 95%.

`CC(C)C(C)NC(=C(C#N)C(=O)C1(F)CC1)c1cccnc1Cl` (stereo not shown) [Compound 10] showed an efficacy of 95%.

`CC(C)C(C)NC(=C(C#N)C(=O)c1ccsn1)c1cccnc1Cl` (stereo not shown) [Compound 25] yielded an efficacy of 75%.

Compound `CCCC(=O)C(C#N)=C(NC(C)CCc1ccccc1)c1cccnc1Cl` (racemic) [Compound 116] displayed an efficacy of 85%.

Consider `COCC(=O)C(C#N)=C(NC(C)C1CC1)c1cn(C)nc1C(F)F` (stereo not shown) [Compound 17], for which the efficacy is listed as 100%.

Consider `COCC(=O)C(C#N)=C(NC(C)c1nccs1)c1cccnc1Cl` (stereo not shown) [Compound 77], for which the efficacy was 93%.

System in the next data set: not given
As to conditions: method [a]: LC-MS at pH 2.7, 0.1% formic acid in water / acetonitrile, linear gradient 10% to 95% acetonitrile.
Turning to `CC(NC(=C(C#N)C(=O)C1CCCC1)c1cccnc1Cl)C1CC1` (stereo not shown) [Compound 14], the LogP was 3.83^[a].

Turning to `CC(C)C(C)NC(=C(C#N)C(=O)C1CCCCO1)c1cccnc1Cl` (stereo not shown) [Compound 6], the LogP is 3.00^[a].

As to `C=CCCC(=O)C(C#N)=C(NC(C)C(C)C)c1cccnc1Cl` (stereo not shown) [Compound 73], the LogP was 3.7^[a].

Take `CCCC(=O)C(C#N)=C(NC(C)CC1CC1)c1cccnc1Cl` (racemic) [Compound 118]: the LogP was 3.63^[a].

For `COCC(=O)C(C#N)=C(NC(C)C1CC1)c1cccnc1Cl` (stereo not shown) [Compound 49], the LogP is 2.23^[a].

As for `CC(C)C(C)NC(=C(C#N)C(=O)Cc1ccccc1)c1cccnc1Cl` (stereo not shown) [Compound 29], the LogP was 3.85^[a].

Turning to `CCCC(=O)C(C#N)=C(NC(C)CCC)c1cccnc1Cl` (racemic) [Compound 117], the LogP is 3.65^[a].

Take `CCC(=O)C(C#N)=C(NC1CC1CC)c1cccnc1Cl` (stereo not shown) [Compound 68]: the LogP was 3.13^[a].

In the case of `CCCC(=O)C(C#N)=C(NC(C)C1CCC1)c1cccnc1Cl` (racemic) [Compound 104], the LogP was 3.81^[a].

For the compound `CCCCC(=O)C(C#N)=C(NC(C)C1(Cl)CC1)c1cccnc1Cl` (stereo not shown) [Compound 47], the LogP was 2.33^[a].

Consider `CC(C)C(C)NC(=C(C#N)C(=O)CN1CCCC1)c1cccnc1Cl` (stereo not shown) [Compound 35], for which the LogP was 1.52^[a].

Consider `CC#CC(C)NC(=C(C#N)C(=O)CCC)c1cn(C)nc1C(F)F` (racemic) [Compound 125], for which the LogP is 2.98^[a].

For the compound `CCCC(=O)C(C#N)=C(NC1CC1CC)c1cccnc1Cl` (stereo not shown) [Compound 31], the LogP is 3.51^[a].

Regarding `CCCC(=O)C(C#N)=C(NC(C)C1=NOCC1)c1cccnc1Cl` (racemic) [Compound 100], the LogP was 2.47^[a].

With `CC(C)C(=O)C(C#N)=C(NC(C)C(C)C)c1cccnc1Cl` (stereo not shown) [Compound 9], the LogP was 3.60^[a].

As to `CC(C)C(C)NC(=C(C#N)C(=O)C1(F)CC1)c1cccnc1Cl` (stereo not shown) [Compound 10], the LogP is 3.29^[a].

On to `CC(C)C(C)NC(=C(C#N)C(=O)c1ccsn1)c1cccnc1Cl` (stereo not shown) [Compound 25], for which the LogP was 2.98^[a].

On to `CCCC(=O)C(C#N)=C(NC(C)CCc1ccccc1)c1cccnc1Cl` (racemic) [Compound 116], for which the LogP is 4.16^[a].

For `COCC(=O)C(C#N)=C(NC(C)C1CC1)c1cn(C)nc1C(F)F` (stereo not shown) [Compound 17], the LogP is 2.15^[a].

Take `CCCC(=NOC)C(C#N)=C(NC(C)C(C)C)c1cn(C)nc1C(F)F` (stereo not shown) [Compound 79]: the LogP is 4.24^[a].

Regarding `COC(C)C(=O)C(C#N)=C(NC(C)C(C)C)c1cccnc1Cl` (stereo not shown) [Compound 67], the LogP is 2.70^[a].

With `CC(NC(=C(C#N)C(=O)c1ccco1)c1cccnc1Cl)C1CC1` (stereo not shown) [Compound 55], the LogP was 2.80^[a].

As to `CCCC(=O)C(C#N)=C(NC(C)C(C)C)c1cc(C)nn1C(F)F` (stereo not shown) [Compound 92], the LogP is 3.92^[a].

`CCNCC(=O)C(C#N)=C(NC(C)C(C)C)c1cn(C)nc1C(F)F` (stereo not shown) [Compound 60]: the LogP is 1.63^[a].

`CC(NC(=C(C#N)C(=O)Cc1ccccc1)c1cccnc1Cl)C1CC1` (stereo not shown) [Compound 8]: the LogP is 3.23^[a].

Take `CC(C)C(C)NC(=C(C#N)C(=O)CN(C)C)c1cccnc1Cl` (stereo not shown) [Compound 13]: the LogP is 1.39^[a].

On to `CCCC(=O)C(C#N)=C(NC(C)C1CC1)c1cccnc1Cl` (stereo not shown) [Compound 43], for which the LogP is 3.25^[a].

In the case of `CCCC(=O)C(C#N)=C(NC(C)C(=O)NC)c1cn(C)nc1C(F)F` (stereo not shown) [Compound 109], the LogP is 1.79^[a].

Turning to `Cc1cc(C(NC(C)C(C)C)=C(C#N)C(=O)CC2CC2)n(C(F)F)n1` (stereo not shown) [Compound 93], the LogP was 3.87^[a].

For `CCCC(=O)C(C#N)=C(NC(C)CCc1ccccc1)c1cn(C)nc1C(F)F` (racemic) [Compound 128], the LogP was 3.83^[a].

`COCCC(=O)C(C#N)=C(NC(C)C(C)C)c1cccnc1Cl` (stereo not shown) [Compound 65]: the LogP is 2.78^[a].

As for `Cc1cc(C(NC(C)c2nccs2)=C(C#N)C(=O)CC2CC2)n(C(F)F)n1` (stereo not shown) [Compound 97], the LogP is 3.09^[a].

For the compound `CCCC(=O)C(C#N)=C(NC(C)Cc1ccccc1)c1cccnc1Cl` (stereo not shown) [Compound 108], the LogP is 3.83^[a].

For the compound `COCC(=O)C(C#N)=C(NC(C)C(C)C)c1cccnc1Cl` (stereo not shown) [Compound 41], the LogP is 2.48^[a].

Consider `CCCC(=O)C(C#N)=C(NC(C)CC(C)C)c1cccnc1Cl` (racemic) [Compound 115], for which the LogP was 3.99^[a].

On to `CCC(C)C(=O)C(C#N)=C(NC(C)C(C)C)c1cccnc1Cl` (stereo not shown) [Compound 76], for which the LogP is 3.9^[a].

Regarding `CNCC(=O)C(C#N)=C(NC(C)C(C)C)c1cn(C)nc1C(F)F` (stereo not shown) [Compound 50], the LogP is 1.60^[a].

Turning to `CC(NC(=C(C#N)C(=O)C1CCCC1)c1cn(C)nc1C(F)F)C1CC1` (stereo not shown) [Compound 21], the LogP was 3.58^[a].

In the case of `CCC(=O)C(C#N)=C(NC(C)C1CC1)c1cccnc1Cl` (stereo not shown) [Compound 22], the LogP was 2.88^[a].

`CC(C)C(C)NC(=C(C#N)C(=O)c1ccco1)c1cccnc1Cl` (stereo not shown) [Compound 48]: the LogP was 3.11^[a].

For the compound `CC(C)C(C)NC(=C(C#N)C(=O)CNC1CC1)c1cccnc1Cl` (stereo not shown) [Compound 39], the LogP is 1.74^[a].

For the compound `CCC(=O)C(C#N)=C(NC(C)C1CC1)c1cn(C)nc1C(F)F` (stereo not shown) [Compound 69], the LogP was 2.73^[a].

In the case of `CC(C)C(C)NC(=C(C#N)C(=O)CNC1CC1)c1cn(C)nc1C(F)F` (stereo not shown) [Compound 58], the LogP is 1.78^[a].

Regarding `CC(C)C(C)NC(=C(C#N)C(=O)C1CCCCC1)c1cccnc1Cl` (stereo not shown) [Compound 53], the LogP is 4.50^[a].

Consider `CC(C)C(C)NC(=C(C#N)C(=O)C1CCCC1)c1cccnc1Cl` (stereo not shown) [Compound 7], for which the LogP is 4.23^[a].

As for `CC(C)C(C)NC(=C(C#N)C(=O)CCl)c1cccnc1Cl` (stereo not shown) [Compound 45], the LogP was 3.02^[a].

For `CCCCC(=O)C(C#N)=C(NC1CC1CC)c1cccnc1Cl` (stereo not shown) [Compound 38], the LogP is 3.94^[a].

As for `CC(C)OCC(=O)C(C#N)=C(NC(C)C(C)C)c1cccnc1Cl` (stereo not shown) [Compound 19], the LogP was 3.19^[a].

Turning to `CC(NC(=C(C#N)C(=O)C1CC1)c1cccnc1Cl)C1CC1` (stereo not shown) [Compound 42], the LogP was 3.06^[a].

Take `CCCC(=O)C(C#N)=C(NC(C)c1ccco1)c1cccnc1Cl` (racemic) [Compound 99]: the LogP was 3.31^[a].

For `CCCC(=O)C(C#N)=C(NC(C)c1nc(C)c(C)s1)c1cccnc1Cl` (racemic) [Compound 105], the LogP is 3.02^[a].

As to `CC(C)C(C)NC(=C(C#N)C(=O)C1(Cl)CC1)c1cccnc1Cl` (stereo not shown) [Compound 3], the LogP is 3.44^[a].

As for `CCCC(=O)C(C#N)=C(NC(C)c1nccs1)c1cc(C)nn1C(F)F` (stereo not shown) [Compound 94], the LogP was 3.11^[a].

In the case of `CC(C)C(C)NC(=C(C#N)C(=O)C1CCCC1)c1cn(C)nc1C(F)F` (stereo not shown) [Compound 78], the LogP was 3.81^[a].

Consider `CCCC(=O)C(C#N)=C(NC(C)COC)c1cc(C)nn1C(F)F` (stereo not shown) [Compound 95], for which the LogP was 3.13^[a].

On to `CCC(F)(F)C(=O)C(C#N)=C(NC(C)C(C)C)c1cccnc1Cl` (stereo not shown) [Compound 37], for which the LogP was 3.55^[a].

On to `CCCC(=O)C(C#N)=C(NC(C)CC(C)C)c1cn(C)nc1C(F)F` (racemic) [Compound 127], for which the LogP is 3.63^[a].

As to `CC(C)C(C)NC(=C(C#N)C(=O)CN1CCCC1)c1cn(C)nc1C(F)F` (stereo not shown) [Compound 66], the LogP is 1.31^[a].

Take `CNCC(=O)C(C#N)=C(NC(C)C(C)C)c1cccnc1Cl` (stereo not shown) [Compound 15]: the LogP is 1.50^[a].

For the compound `CCNCC(=O)C(C#N)=C(NC(C)C(C)C)c1cccnc1Cl` (stereo not shown) [Compound 57], the LogP was 1.68^[a].

For the compound `CCCC(=O)C(C#N)=C(NC(C)c1nc(C)c(C)s1)c1cn(C)nc1C(F)F` (racemic) [Compound 123], the LogP is 2.92^[a].

For the compound `CC(C)C(C)NC(=C(C#N)C(=O)CCCCl)c1cccnc1Cl` (stereo not shown) [Compound 74], the LogP was 3.63^[a].

Turning to `CCCC(=O)C(C#N)=C(NC(C)Cc1ccccc1)c1cn(C)nc1C(F)F` (stereo not shown) [Compound 111], the LogP was 3.55^[a].

Turning to `CC(NC(=C(C#N)C(=O)CC1CC1)c1cccnc1Cl)C1CC1` (stereo not shown) [Compound 54], the LogP is 3.31^[a].

For `CC(C)C(C)NC(=C(C#N)C(=O)CCl)c1cn(C)nc1C(F)F` (stereo not shown) [Compound 32], the LogP was 2.86^[a].

In the case of `CC(C)C(C)NC(=C(C#N)C(=O)C1CC1)c1cccnc1Cl` (stereo not shown) [Compound 71], the LogP was 3.39^[a].

On to `COCC(=O)C(C#N)=C(NC(C)c1nccs1)c1cn(C)nc1C(F)F` (stereo not shown) [Compound 82], for which the LogP is 1.76^[a].

As for `CSCC(=O)C(C#N)=C(NC(C)C(C)C)c1cccnc1Cl` (stereo not shown) [Compound 46], the LogP is 3.13^[a].

Consider `CC(NC(=C(C#N)C(=O)C1CCC1)c1cccnc1Cl)C1CC1` (stereo not shown) [Compound 12], for which the LogP is 3.44^[a].

With `CC(C)C(C)NC(=C(C#N)C(=O)C1CC1C)c1cccnc1Cl` (stereo not shown) [Compound 61], the LogP is 3.80^[a].

`COCC(C)NC(=C(C#N)C(=O)CC1CC1)c1cc(C)nn1C(F)F` (stereo not shown) [Compound 96]: the LogP is 3.11^[a].
